Type in all cases: cell-based
Assay [1] deals with Staph. 9TV. Kind of assay: MIC by serial dilution method on Iso-Sensitest agar. The method, then: (§1) The minimum inhibitory concentrations (MIC) were determined by the serial dilution method on Iso-Sensitest agar (Oxoid). For each test substance a series of agar plates were prepared which contained decreasing concentrations of the active substance, obtained by twofold dilution from one plate to the next. The agar plates were inoculated with a Multipoint inoculator (Denley). Inoculation was effected using overnight cultures of the pathogens which had been diluted beforehand so that each inoculation point contained ca. 10^4 colony forming particles. The inoculated agar plates were incubated at 37° C. and the bacterial growth was evaluated after ca. 20 hours. The MIC value (μg/ml) indicates the lowest active substance concentration at which no growth was detectable with the naked eye.

Assay [2] concerns Staph. 25701. Described as above. The protocol: as §1
Assay [3] relates to E. coli Neumann. The description is as above. The note with it: Escherichia coli. The protocol: as §1
Assay [4] has as its system Klebs. 57 USA. The description is as above. The protocol: as §1
In assay [5] the test system is Staph. 133. Described as above. The protocol: as §1
The test system of assay [6] is Psdm. Bonn. Described as above. The method, then:
as §1

The subject of assay [7] is Staph. 48N. Described as above. The method, then:
as §1

Assay [8] concerns Mycobacterium smegmatis DSM 43078. Description: MIC for rapidly growing mycobacteria, broth microdilution method. The settings on record: Mycolicibacterium smegmatis, DSM43078, inoculum 4.20E + 04 [/ml], 37° C., 2-4 days. The protocol: For rapidly growing mycobacteria the MIC were determined on the basis of the broth microdilution method described by Swenson [cf. J. M. Swenson, C. Thomberry, U. A. Silcox, Rapidly growing mycobacteria. Testing of susceptibility to 34 antimicrobial agents by broth microdilution. Antimicrobial Agents and Chemotherapy, vol. 22, 186-192 (1982)]. The brain-heart extract medium treated with 0.1 vol.% of Tween 80 was an exception.
The mycobacterial strains used were obtained from the DSM (Deutsche Sammlung von Mikroorganismen (German Collection of Microorganisms), Brunswick). They were incubated in a moist chamber at 37° C.
The MIC values were evaluated after 2-4 days, when the preparation-free controls were opaque due to growth.
On the technique in general: Broth dilution looks for growth in wells or tubes with falling amounts of substance.

Where [9] appears, read: Staph. 9TV, agar, 37° C., ca. 20 hours, read-out: MIC.
The mark [10] stands for this setting: Staph. 25701, agar, 37° C., ca. 20 hours, read-out: MIC.
The mark [11] stands for this setting: E. coli Neumann, agar, 37° C., ca. 20 hours, read-out: MIC.
The mark [12] stands for this setting: Klebs. 57 USA, agar, 37° C., ca. 20 hours, read-out: MIC.
Where [13] appears, read: Staph. 133, agar, 37° C., ca. 20 hours, read-out: MIC.
Where [14] appears, read: Staph. 48N, agar, 37° C., ca. 20 hours, read-out: MIC.

In brackets after ≈: the same amount, converted by molar mass. Like-named read-outs stand apart in the source and are kept apart here.

The MIC is the lowest concentration found to suppress growth. For the compound `CCCOC(=O)NC[C@H]1CN(c2ccc(-c3cccnc3)s2)C(=O)O1` [Example 20], the MIC is 2 mg/L (≈ 5.53 µM) in assay [1] (setting [9]); 2 mg/L (≈ 5.53 µM) in assay [2] (setting [10]); above 64 mg/L in assay [3] (setting [11]); above 64 mg/L in assay [4] (setting [12]); 2 mg/L (≈ 5.53 µM) in assay [5] (setting [13]); above 64 mg/L in assay [6] (Psdm. Bonn, agar, 37° C., ca. 20 hours, read-out: MIC). Also, the MIC in assay [7] (setting [14]) came to 2 mg/L (≈ 5.53 µM).

As for `NNC(=O)c1ccncc1` [Isoniazid], the MIC in assay [8] came out at 2 mg/L.

Consider `COC(=O)NC[C@H]1CN(c2ccc(Br)c(C)n2)C(=O)O1` [Example 25], for which the MIC was 1 mg/L (≈ 2.91 µM) in assay [1] (setting [9]); 2 mg/L (≈ 5.81 µM) in assay [2] (setting [10]); above 64 mg/L in assay [3] (setting [11]); above 64 mg/L in assay [4] (setting [12]); 2 mg/L (≈ 5.81 µM) in assay [5] (setting [13]); 2 mg/L (≈ 5.81 µM) in assay [7] (setting [14]).

As for `O=C(CF)NC[C@H]1CN(c2ccc(-c3cccnc3)s2)C(=O)O1` [Example 18], the MIC in assay [1] (20 h) is 1 mg/L (≈ 2.98 µM); in assay [2] (20 h) it was 4 mg/L (≈ 11.9 µM); in assay [3] (20 h), above 64 mg/L; in assay [4] (20 h), above 64 mg/L; in assay [5] (20 h), 2 mg/L (≈ 5.96 µM); in assay [6] (20 h) it was above 64 mg/L. Moreover, in assay [7] (20 h), the MIC amounted to 4 mg/L (≈ 11.9 µM).

For the origin of these results see patent US5922708A, “Heteroaryl-oxazolidinones” (Bayer Aktiengesellschaft, priority 1996, dated 1999).
